Experimental data as given in PubChem BioAssay (NCI).
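Five concentrations, 48 hours, 96-well plates. At the GI50, growth is halved. The concentration for full growth arrest is given as TGI.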

Assays:
Test in all cases: inhibition of tumour cell growth, NCI panel, 48 h
[1] = system: 786-0 renal
[2] = system: A498 renal
[3] = system: A549 NSCLC
[4] = system: ACHN renal
[5] = system: BT-549 breast
[6] = system: CAKI-1 renal
[7] = system: CCRF-CEM leukemia
[8] = system: COLO 205 colon
[9] = system: DU-145 prostate
[10] = system: HCC-2998 colon
[11] = system: HCT-116 colon
[12] = system: HCT-15 colon
[13] = system: HL-60(TB) leukemia
[14] = system: HOP-62 NSCLC
[15] = system: HOP-92 NSCLC
[16] = system: HS 578T breast
[17] = system: HT29 colon
[18] = system: IGROV1 ovarian
[19] = system: K-562 leukemia
[20] = system: KM12 colon
[21] = system: LOX IMVI melanoma
[22] = system: M14 melanoma
[23] = system: MALME-3M melanoma
[24] = system: MCF7 breast
[25] = system: MDA-MB-231 breast
[26] = system: MDA-MB-435
[27] = system: MOLT-4 leukemia
[28] = system: NCI-H226 lung
[29] = system: NCI-H23 lung

O=C1NC(=NCc2ccccc2Br)S/C1=C\c1ccc2ncccc2c1
GI50 [1]: 9.43 µM
TGI [1]: > 25 µM
GI50 [2]: 5.55 µM
TGI [2]: > 21.4 µM
GI50 [3]: 5.99 µM
TGI [3]: > 25 µM
GI50 [4]: 10.6 µM
TGI [4]: > 25 µM
GI50 [5]: 6.32 µM
TGI [5]: > 22.3 µM
GI50 [6]: 7.18 µM
TGI [6]: > 25 µM
GI50 [7]: 7.26 µM
TGI [7]: > 25 µM
GI50 [8]: 5.4 µM
TGI [8]: > 25 µM
GI50 [9]: 8.69 µM
TGI [9]: > 25 µM
GI50 [10]: 24.3 µM
TGI [10]: > 25 µM
GI50 [11]: 2.74 µM
TGI [11]: > 25 µM
GI50 [12]: 4.36 µM
TGI [12]: > 25 µM
GI50 [13]: 7.96 µM
TGI [13]: > 23.4 µM
GI50 [14]: 5.93 µM
TGI [14]: > 17.5 µM
GI50 [15]: 6.89 µM
TGI [15]: > 23.3 µM
GI50 [16]: 6.28 µM
TGI [16]: 24.4 µM
GI50 [17]: 10.7 µM
TGI [17]: > 25 µM
GI50 [18]: 7.68 µM
TGI [18]: > 21.2 µM
GI50 [19]: 8.19 µM
TGI [19]: > 25 µM
GI50 [20]: 10.6 µM
TGI [20]: > 25 µM
GI50 [21]: 4.7 µM
TGI [21]: > 25 µM
GI50 [22]: 11.1 µM
TGI [22]: > 25 µM
GI50 [23]: > 15.3 µM
TGI [23]: > 25 µM
GI50 [24]: 4.07 µM
TGI [24]: > 25 µM
GI50 [25]: 15 µM
TGI [25]: > 25 µM
GI50 [26]: 5.62 µM
TGI [26]: > 25 µM
GI50 [27]: 10 µM
TGI [27]: > 25 µM
GI50 [28]: 8.06 µM
TGI [28]: > 25 µM
GI50 [29]: 11.5 µM
